Patent publication US20180333382A1, “PHARMACEUTICAL COMPOSITIONS COMPRISING DGLA AND USE OF SAME” (DS Biopharma Limited, priority 2017, published 2018)
Values joined by “and” are separate entries in the source; they are usually repeats but may differ in a detail not shown here. Identical values can stand only once.

What was measured:
eosinophil = assay: Phase II study: eosinophil concentrations by ethnicity and responder status; assay type: in vivo, human
Experimental: Laboratory tests were performed at screening, Day 0, Week 4 and Week 8. If Week 8 results indicated a clinically significant change from baseline, laboratory tests were also performed at Week 10. The tests included urinalysis, hematology with differential and coagulation testing, a standard chemistry panel (chemistry includes liver function tests and cholesterol), coagulation, serum pregnancy test (screening and week 8 early termination visits) for women of childbearing potential (WOCBP). At baseline (Day 0), week 2, week 4 and week 10 visits, a urine pregnancy test was performed for women of childbearing potential (conducted at the investigator site).
Eosinophils are a type of white blood cell that play an important role in the body's response to allergic reactions, asthma, and infection with parasites. Eosinophils usually account for less than 7% of the circulating white blood cells (100 to 500 eosinophils per microliter of blood). These cells have a role in the protective immunity against certain parasites but also contribute to the inflammation that occurs in allergic disorders.
FIG. 30A-B. In particular, 56% of DS107-treated African America patients were classified as Responders, versus only 7% of Caucasian patients. […]

[1] = Phase one study part 2: free and total DGLA in skin blister fluid; assay type: in vivo, human
From the text: The PK of DGLA in human skin following multiple doses of DS107G capsule given once daily for 28 days to healthy subjects.

[2] = tested on: spontaneous hypertensive rats; assay: Arterial pressure and phenylephrine-induced hypertensive response after seven days of gavage (DGLA, aspirin, DGLA + aspirin); assay type: in vivo, rat; settings: for Mean arterial pressure at baseline, Average SAP / Mean arterial pressure with an intravenous dose of Phenylephrine 20 μg/kg, Average SAP / Mean arterial pressure at baseline, individual rats / Mean arterial pressure with an intravenous dose of Phenylephrine 20 μg/kg, individual rats: seven consecutive days of gavage; for Mean arterial pressure at baseline, individual rats / Mean arterial pressure with an intravenous dose of Phenylephrine 20 μg/kg, individual rats: Rat #1-#5; for Arterial pressure, Diastol / Arterial pressure, Systol / Mean systemic arterial pressure: seven days of gavage, before phenylephrine
Experimental: An in vivo investigation of anti-hypertension efficacy following co-administration of DGLA and aspirin in spontaneous hypertensive rats was conducted. This experiment investigated the efficacy of DGLA when co-administered chronically with aspirin to reduce the hypertensive response induced acutely by phenylephrine in spontaneous hypertensive rats. Spontaneously hypertensive adult male rats (250-300 g), bred by Charles River Laboratories, were used for this assay. The animals were identified upon arrival as per CCPA guidelines. The animals were pair-housed by group (low dose+aspirin, high dose+aspirin or aspirin alone) for the duration of the oral gavage prior to surgery. All animal care and vivarium maintenance was recorded, with documents kept at the test facility.
The concentrations of DGLA to be tested (50 and 500 mg/kg) as well as the concentration of aspirin (10 mg/kg) were selected by the Sponsor based on information available at the time of design of this study. They were selected to cover a range of concentrations useful for the identification of the mechanism of action of the test article.
All solution preparations were documented on a Solution Contents Form, defining labelling information and all relevant information on reagents: batch number, storage conditions, contents, and preparation/expiry dates.
The test article was formulated using olive oil as the vehicle. This stock solution was then administered by oral gavage once per day for seven consecutive days. A low and a high dose (50 mg/kg and 500 mg/kg) were tested.
A 5 mg/ml stock solution of aspirin was prepared by dissolving the appropriate amount of aspirin in 100% DMSO which was then diluted in water. The concentration of DMSO was less than 1%. The appropriate volume was administered by oral gavage to each animal once per day for seven consecutive days. The stock solution was stored at room temperature and was considered stable for the duration of the gavage.
The appropriate volume was administered to each animal by an intravenous injection at the end of the experiment on the surgery day. The stock solution was stored at 4° C. and was considered stable for the duration of the experiment.
A stock solution of phenylephrine of 1 mg/ml were prepared in PBS (pH=7.4±0.05). The stock solution was stored at 4° C. The expiration date was set at 14 days after preparation.
Male spontaneous hypertensive rats weighing approximately 300 g arrived at the facility at least two days before beginning the oral gavage. Animals were assigned to one of three groups (low dose+aspirin, high dose+aspirin, and aspirin), and were pair-housed during the acclimation period. Each group (n=4) received the appropriate compound by oral gavage using a 16 G feeding needle. The stock solution was administered once per day for seven consecutive days. On the seventh day of administration, the animals underwent surgery and hypertensive monitoring.
Rats were anesthetized with a 2.5-3.0% isoflurane-O2 mixture in an induction box. When the animals were removed from the induction box, they were connected onto a nose cone to maintain anesthesia during the tracheotomy. The animals were tracheotomised with an endotracheal tube (7 cm length from connector to the tip made with a PE205 tube from BD and a 16 G needle) to facilitate spontaneous breathing, stabilize hemodynamics, and to keep the rat under anesthesia with an isoflurane-O2 mixture. Two catheters were inserted: one in the right femoral artery for systemic arterial pressure (SAP) measurement, and one in the right femoral vein for delivery of the hypertensor and positive control. ECG signals were acquired with ECG contacts placed in a Lead-1 configuration on the anaesthetized animal, and a pulse oxymeter was attached to the animal's hind paw to enable continuous monitoring of the general condition of the rat during the surgical procedure.

## CCCCC/C=C\C/C=C\C/C=C\CCCCCCC(=O)O [DS107G, Dihomo gamma linolenic acid]
eosinophil; African American vs Caucasian patients, each time point measured
  eosinophil concentrations: statistically significant reductions
eosinophil; treated Responders vs Non-responders, all time points
  eosinophil concentration: statistically significant decrease
[1]; Days 1, 8, 14 and 28
  mean free DGLA concentrations in skin blister fluid with a doubling in dose: approximately doubled
[1]; both 2000 and 4000 mg daily
  mean free DGLA concentrations in skin blister fluid, Day 28 vs Day 1: about 3 fold
[1]; same dose, Day 8 and Day 14 (but not Day 28)
  mean concentrations of free DGLA, plasma vs skin blister fluid: somewhat similar in plasma and skin blister fluid
[1]; same dose, after Day 1
  mean concentrations of total DGLA, plasma vs skin blister fluid: much higher in plasma than in skin blister fluid
[2]; DGLA 50 mg/kg
  Mean arterial pressure at baseline, Average SAP: 74.5 mm of Hg
  Mean arterial pressure with an intravenous dose of Phenylephrine 20 μg/kg, Average SAP: 115.7 mm of Hg
  Mean arterial pressure at baseline, individual rats: 51.77 mm of Hg and 87.81 mm of Hg and 62.11 mm of Hg and 86.01 mm of Hg and 84.93 mm of Hg
  Mean arterial pressure with an intravenous dose of Phenylephrine 20 μg/kg, individual rats: 91.82 mm of Hg and 137.84 mm of Hg and 105.44 mm of Hg and 132.68 mm of Hg and 110.72 mm of Hg
  Arterial pressure, Diastol: 75 mmHg
  Arterial pressure, Systol: 120 mmHg
  Mean systemic arterial pressure: 90 mmHg
[2]; DGLA 500 mg/kg
  Mean arterial pressure at baseline, Average SAP: 82.2 mm of Hg
  Mean arterial pressure with an intravenous dose of Phenylephrine 20 μg/kg, Average SAP: 112.1 mm of Hg
  Mean arterial pressure at baseline, individual rats: 64.81 mm of Hg and 91.55 mm of Hg and 94.41 mm of Hg and 66.56 mm of Hg and 93.64 mm of Hg
  Mean arterial pressure with an intravenous dose of Phenylephrine 20 μg/kg, individual rats: 105.21 mm of Hg and 119.33 mm of Hg and 118.12 mm of Hg and 97.17 mm of Hg and 120.82 mm of Hg
  Arterial pressure, Diastol: 80 mmHg
  Arterial pressure, Systol: 135 mmHg
  Mean systemic arterial pressure: 98 mmHg
[2]; DGLA 50 or 500 mg/kg alone, effect eliminated by aspirin
  effect on arterial pressure in spontaneously hypertensive rats: successfully decreases the arterial pressure
[2]; spontaneous hypertensive rats treated with DGLA alone, observed previously
  lowering of the mean systemic arterial blood pressure: up to 25%
